US20200054555A1, “CONTACT LENS WITH FUNCTIONAL COMPONENTS AND PRODUCTS THEREOF” (UNICON OPTICAL CO., LTD., priority 2018, published 2020)

Assay: accumulated release of functional components from the contact lens over time, detected by high performance liquid chromatography
Assay type: physicochemical
Conditions: with a cyclic oligosaccharide or cyclic polysaccharide
Method: Further, the present invention uses high performance liquid chromatography to detect accumulation of the released functional components of the contact lens with increasing time. It is learned from FIG. 2: the contact lens of the present invention, which is a HEMA lens made up of 38% water by weight and a cyclic oligosaccharide or cyclic polysaccharide, can persistently release Vitamin B12 for a longer period of time (more than 12 hours). It is learned from FIG. 3: the contact lens of the present invention, which is an organosilicon hydrogel contact lens made up of 43% water by weight and a cyclic oligosaccharide or cyclic polysaccharide, can persistently release Vitamin B12 for a longer period of time (more than 12 hours). It is learned from FIG. 4: the contact lens of the present invention, which contains HEMA and 38% water by weight and a cyclic oligosaccharide or cyclic polysaccharide, can persistently release curcumin for a longer period of time (more than 20 hours). It is learned from FIG. 5: the contact lens of the present invention, which contains HEMA and 38% water by weight and a cyclic oligosaccharide or cyclic polysaccharide, can persistently release quercetin in a longer time interval (more than 20 hours). It is learned from FIG. 6: the contact lens of the present invention, which is made from HEMA and 38% water by weight, and a cyclic oligosaccharide or cyclic polysaccharide, can persistently release xanthophyll for a longer period of time (more than 30 hours).

[1] = HEMA contact lens, 38% water by weight, FIG. 2, 4, 5, 6

Row | Substance | period of persistent release of the functional component from the contact lens [1] | period of persistent release of the functional component from the contact lens (organosilicon hydrogel contact lens, 43% water by weight, FIG. 3)
1 | Vitamin B12 | more than 12 hours | more than 12 hours
2 | xanthophyll | more than 30 hours | 
